Results on 2 molecules are retold here after article PMC5743599 (Antiviral research, 2017).

The nature of data set [1]: Single and repeat dose maximum tolerated dose studies. Type of data set: in vivo, C57Bl/6 mice or huFRG KO mice.
For the next data set, the system named is HBV genotype A. Kind of data set: Pilot/preliminary efficacy study in HBV genotype A-infected huFRG KO mice. The class given is in vivo, hepatitis B virus.
The next data set deals with HBV genotype C. Kind of data set: Primary efficacy study in HBV genotype C-infected huFRG KO mice. The class given is in vivo, hepatitis B virus.
For a further data set, the system named is HBV. Put plainly: HBV transgenic mouse model. Type of data set: in vivo, hepatitis B virus. To be noted: HBV transgenic mice, 100 mg/kg daily IP; data not shown.
The nature of the next data set: Tolerability. The class given is in vivo, huFRG KO mice. The conditions noted are these: for weight recovery after the treatment phase: primary study, post-treatment.
Setting [2] is: entecavir 1 mg/kg/day PO, Days 59-72, genotype C.

In the case of `CC(=Nc1ccccc1N)c1c(C)cc(=O)n(O)c1O` [#208], in data set [1] (non-infected mice, IP), the Dose-limiting toxicity is >10% weight loss, hypoactivity, unkempt appearance, feeling cool-to-touch, and distended abdomen. Further, the “maximum tolerated dose (MTD)” value in data set [1] (single and repeat IP injections up to seven days, male C57Bl/6 or huFRG KO mice) stood at 100 mg/kg. Moreover, the “suppression of HBV viremia (average) after one week” value in the data set on HBV genotype A (50 and 100 mg/kg/day IP, Days 160-173, vs pretreatment Day 159, genotype A) came to 1.1 log. In the data set on HBV genotype A (50 and 100 mg/kg/day IP, surviving mice, genotype A), the “suppression of HBV viremia at week two” value is “sustained”. Moreover, the “decrease in HBV titers (trend) in pilot experiment” value in the data set on HBV genotype A (genotype A, #208 treated animals) was ~1 log. Besides, in the data set on HBV genotype C (100 mg/kg/day IP, genotype C), the “decrease in HBV titers after one week compared to control mice” value stood at 1.6 log and the “decrease in HBV titers after two weeks of dosing compared to control mice” value is 1.4 log. Further, in the data set on HBV, the “reduction of intrahepatic DNA accumulation” value is “failed to reduce” and the “reduction of serum viremia” value is “failed to reduce”. In “Tolerability” (Day 87-88, one animal per group, not with certainty test article-related), the “deaths / moribundity in post-dosing phase of primary study” value is recorded as “found dead”. In addition, the “weight recovery after the treatment phase” value in “Tolerability” was “some weight gain occurred”.
`C=C1[C@H](CO)[C@@H](O)C[C@@H]1n1cnc2c(=O)[nH]c(N)nc21` [entecavir, Entecavir, reference compound]: the “Viral titers rebounded to pretreatment levels by Day” value in the data set with HBV genotype A (after entecavir withdrawal (treatment days 71-84), genotype A) is ≤ 159 days. In the data set on HBV genotype A (entecavir 1.0 mg/kg PO two weeks, Days 70 to 85, genotype A, plasma), the “drop in HBV titers more than the control animals” value was 2.8 log. In the data set on HBV genotype C (setting [2]), the “decrease in HBV titers after one week of treatment” value is 2.6 log and the “decrease in HBV titers after two weeks” value was determined as 3.2 log. Further, the “weight recovery after the treatment phase” value in “Tolerability” was “some weight gain occurred”.
